Experimental data reported in patent US9944613B2, “Fumagillol spirocyclic compounds and fused bicyclic compounds and methods of making and using same” (Zafgen, Inc., priority 2015, dated 2018).
Counter-ions that a name gives are not always drawn. Like-named read-outs stand apart in the source and are kept apart here.

Assays:
[1] = test system: rat DIO model (Sprague Dawley rats on high fat diet); assay: 11 day rat DIO model, weight loss vs. vehicle; format: in vivo; conditions: for inhibition in vivo at 0.3 mg/kg: Rattus norvegicus, 264 h, 0.3 mpk sc once a day for 11 days
Source text: The objective of this study design is to investigate the efficacy of disclosed compounds in an 11 day rat DIO model used to screen compounds for pharmacologic efficacy on endpoints related to obesity and metabolism. Effects on body weight, food intake, hematology and blood chemistries were the primary readouts of this study design. Male Sprague Dawley rats, approximately 8 weeks of age, were ordered from a certified vendor and housed on irradiated corncob bedding in micro-isolator cages, on a 12-hour light-dark cycle (0700-1900) at 68-74° F. and 30-70% humidity. Rats were fed Research Diets D12451 (45% High Fat) and provided water ad libitum. Rats were received and housed in the facility for at least two or three weeks prior to start of test article administration. On Day −4 or −3, rats were randomized into study groups based on body weight and body weights were continued to be recorded daily for the duration of the study. Daily food intake was assessed starting on Study Day −2 by weighing the hopper including the food to avoid loss of food in transfer.
(§1) Compounds were formulated into a 100% DMSO stock (at 9 mg/mL) prior to the start, and further diluted into the target working concentration using the vehicle of 10% DMSO in water. Prior to test article administration, starting on Day −3 a dosing acclimation occured with all animals receiving a subcutaneous injection of vehicle (10% DMSO) only for 3 days. Starting on Day 1, test compounds or vehicle were administered based on individual body weight, subcutaneously, once a day for 11 days. All animals were sacrificed on Day 11, approximately 2 hours following the final dosing on Day 11. After sacrifice, whole blood was collected and analyzed for hematology and blood chemistry parameters.
(§2) Compounds were tested for weight loss vs. vehicle at 0.3 and 1.0 mpk sc (mg per kg animal weight delivered subcutaneously), and the results are shown in Table 2 below.

[2] = test system: Diet Induced Obese (DIO) C57BL/6 mice; assay: 10 day DIO mouse model, weight loss vs. vehicle; format: in vivo; conditions: 240 h, 0.3 mpk sc once a day for 10 days
Source text: The objective of this study design was to investigate the efficacy of disclosed compounds in a 10 day DIO mouse model. Effects on body weight, food intake, hematology and blood chemistry were the primary readouts of this study design. Male, Diet Induced Obese (DIO) C57BL/6 mice, 19-21 weeks of age (13-15 weeks on high fat diet) were ordered from a certified vendor and upon receipt were housed on irradiated corncob bedding in micro-isolator cages on a 12-hour light-dark cycle (0700-1900) at 68-74° F. and 30-70% humidity. Mice were fed Research Diets D12492 (60% Kcal fat, 20% Kcal carbohydrate and 20% protein) and provided water ad libitum. DIO mice were received and housed in the facility for approximately two weeks prior to the start of test article administration. On Day −4 or −3, mice were randomized into study groups based on body weight and body weights were continued to be recorded daily for the duration of the study. Daily food intake was assessed starting on Study Day −2 by weighing of the food with hopper together to avoid loss of food in transfer.
as §1, with “for 10” for “for 11”, “All mice” for “All animals”, “11, 24” for “11, approximately 2”, “Day 10.” for “Day 11.”
as §2

recombinant human MetAP2 = target: T1, recombinant human MetAP2 (Homo sapiens, UniProt P50579); assay: Inhibition of recombinant human MetAP2 activity (MAS peptide / amino acid oxidase / Amplex assay); format: biochemical
T1 construct: Flag; made in house
Procedure: Compounds are tested for their capacity to inhibit recombinant human MetAP2 activity using the following assay.
Flag tagged Human recombinant MetAP2 expressed and isolated for use as the enzyme source. 10 mM stock solutions of compounds were prepared in 100% DMSO and further diluted in 100% DMSO required concentration to 1 mM stocks. The stock compound solutions and DMSO vehicle controls were diluted to target final compound concentrations using assay buffer to a final concentration of 50 mM HEPES containing 100 mM NaCl, pH adjusted to 7.5. The MAS peptide was formulated to a 7.5 mM stock in distilled water and prior to use further diluted 1:4. […] 40 μl of enzyme was mixed with 100 μl of MnCl2 then further diluted in assay buffer to a final concentration of 16 μg/ml. To test for compound effect on MetAP2 enzyme activity, 5 μl of test compound, 10 μl of MAS substrate/amino acid oxidase mixture, 10 μl of MetAP2 was added to test wells in a 384 well black plate with blank wells containing no enzyme, replaced with 10 μl of assay buffer. All compounds were tested in duplicate on two occasions on the same day.
The plate was sealed with a TopSeal A cover and mixed briefly on an orbital mixer at 900 rpm. The plate was incubated for a further 25 minutes at 25° C. A 5× stock of Amplex buffer was prepared (0.25M sodium phosphate, pH 7.4) and stored at 4° C. When preparing for use the stock was diluted with distilled water. […] Horse radish peroxidase was diluted in […] of Amplex buffer, 100 μl of this was combined with 50 μl of Amplex Ultrared in […] of 1× Amplex buffer to generate sufficient detection reagent for a 384 well plate. 25 μl detection reagent was added to each well of the test plate, which was re-sealed and mixed briefly on an orbital shaker. The plate was transferred to an Envision Multi-label reader and RFU measured corresponding to excitation 531 nm and emission 595 nm. At the end of the MetAP2 incubation 25 μl Amplex/HRP mixture per well was added and the plate read plate on a plate reader.

[3] = Flag tagged human recombinant MetAP2, 25 minutes at 25° C., read-out: MetAP2 IC50

T1 sequence (P50579 whole entry): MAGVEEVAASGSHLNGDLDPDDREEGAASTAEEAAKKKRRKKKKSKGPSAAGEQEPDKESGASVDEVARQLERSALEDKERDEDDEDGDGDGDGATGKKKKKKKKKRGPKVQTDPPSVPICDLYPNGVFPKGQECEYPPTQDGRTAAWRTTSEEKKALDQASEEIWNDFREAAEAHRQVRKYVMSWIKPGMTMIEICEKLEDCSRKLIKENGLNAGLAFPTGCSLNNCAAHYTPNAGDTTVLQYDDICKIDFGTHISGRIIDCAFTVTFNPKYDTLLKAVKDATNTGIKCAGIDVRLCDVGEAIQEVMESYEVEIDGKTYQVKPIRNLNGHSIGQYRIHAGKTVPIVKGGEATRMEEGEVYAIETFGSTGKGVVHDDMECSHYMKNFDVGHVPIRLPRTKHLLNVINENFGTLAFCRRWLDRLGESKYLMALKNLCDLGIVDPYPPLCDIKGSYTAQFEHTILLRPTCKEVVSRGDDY

Row | IC50 (recombinant human MetAP2; [3]) [nM] | Compound | inhibition in vivo at 0.3 mg/kg [1] [%] | inhibition in vivo at 0.3 mg/kg [2] [%] | IC50 (recombinant human MetAP2) [nM] | Rat @ 1.0 mpk sc (%) ([1]; 1.0 mpk sc once a day for 11 days)
1 | – | CO[C@@H]1[C@H](OC(=O)N2CCC3(CCN(CC(F)F)CC3)CC2)CC[C@]2(CO2)[C@H]1[C@@]1(C)O[C@@H]1CC=C(C)C [Example 14, (3R,4S,5S,6R)-5-methoxy-4-((2R,3R)-2-methyl-3-(3-methylbut-2-enyl)oxiran-2-yl)-1-oxaspiro[2.5]octan-6-yl 9-(2,2-difluoroethyl)-3,9-diazaspiro[5.5]undecane-3-carboxylate] | 11.6 | 23.3 | – | –
2 | < 50 | CO[C@@H]1[C@H](OC(=O)N2CC3(CCOCC3)C2)CC[C@]2(CO2)[C@H]1[C@@]1(C)O[C@@H]1CC=C(C)C [Example 3, (3R,4S,5S,6R)-5-methoxy-4-((2R,3R)-2-methyl-3-(3-methylbut-2-enyl)oxiran-2-yl)-1-oxaspiro[2.5]octan-6-yl 7-oxa-2-azaspiro[3.5]nonane-2-carboxylate] | 7.9 | 18.9 | – | –
3 | 50 to 500 | CO[C@@H]1[C@H](OC(=O)N2C[C@H]3CN(CC(F)F)C[C@H]3C2)CC[C@]2(CO2)[C@H]1[C@@]1(C)O[C@@H]1CC=C(C)C [Example 19, (3aR,6aS)-((3R,4S,5S,6R)-5-methoxy-4-((2R,3R)-2-methyl-3-(3-methylbut-2-enyl)oxiran-2-yl)-1-oxaspiro[2.5]octan-6-yl) 5-(2,2-difluoroethyl)hexahydropyrrolo[3,4-c]pyrrole-2(1H)-carboxylate] | 7.6 | 22.6 | – | –
4 | – | CO[C@@H]1[C@H](OC(=O)N2CCC3(CC2)COC3)CC[C@]2(CO2)[C@H]1[C@@]1(C)O[C@@H]1CC=C(C)C [Example 5, (3R,4S,5S,6R)-5-methoxy-4-((2R,3R)-2-methyl-3-(3-methylbut-2-enyl)oxiran-2-yl)-1-oxaspiro[2.5]octan-6-yl 2-oxa-7-azaspiro[3.5]nonane-7-carboxylate] | 6.6 | 16.7 | < 50 | –
5 | < 50 | CO[C@@H]1[C@H](OC(=O)N2C[C@H]3CN(C)C[C@H]3C2)CC[C@]2(CO2)[C@H]1[C@@]1(C)O[C@@H]1CC=C(C)C [Example 20, (3aR,6aS)-((3R,4S,5S,6R)-5-methoxy-4-((2R,3R)-2-methyl-3-(3-methylbut-2-enyl)oxiran-2-yl)-1-oxaspiro[2.5]octan-6-yl) 5-methylhexahydropyrrolo[3,4-c]pyrrole-2(1H)-carboxylate formate] | – | 1.4 | – | –
6 | 50 to 500 | CO[C@@H]1[C@H](OC(=O)N2CCC3(CCOC3)CC2)CC[C@]2(CO2)[C@H]1[C@@]1(C)O[C@@H]1CC=C(C)C [Example 24, (3R,4S,5S,6R)-5-methoxy-4-((2R,3R)-2-methyl-3-(3-methylbut-2-enyl)oxiran-2-yl)-1-oxaspiro[2.5]octan-6-yl 2-oxa-8-azaspiro[4.5]decane-8-carboxylate] | 6.3 | 20.5 | – | –
7 | < 50 | CO[C@@H]1[C@H](OC(=O)N2CCC3(CCN(C)CC3)C2)CC[C@]2(CO2)[C@H]1[C@@]1(C)O[C@@H]1CC=C(C)C [Example 26, (3R,4S,5S,6R)-5-methoxy-4-((2R,3R)-2-methyl-3-(3-methylbut-2-enyl)oxiran-2-yl)-1-oxaspiro[2.5]octan-6-yl 8-methyl-2,8-diazaspiro[4.5]decane-2-carboxylate] | – | 5.6 | – | –
8 | < 50 | CO[C@@H]1[C@H](OC(=O)NC2CC3(CCN(C)CC3)C2)CC[C@]2(CO2)[C@H]1[C@@]1(C)O[C@@H]1CC=C(C)C [Example 7, (3R,4S,5S,6R)-5-methoxy-4-((2R,3R)-2-methyl-3-(3-methylbut-2-enyl)oxiran-2-yl)-1-oxaspiro[2.5]octan-6-yl 7-methyl-7-azaspiro[3.5]nonan-2-ylcarbamate formate] | – | 1.9 | – | –
9 | < 50 | CO[C@@H]1[C@H](OC(=O)N2CC3(CCOC3)C2)CC[C@]2(CO2)[C@H]1[C@@]1(C)O[C@@H]1CC=C(C)C [Example 6, (3R,4S,5S,6R)-5-methoxy-4-((2R,3R)-2-methyl-3-(3-methylbut-2-enyl)oxiran-2-yl)-1-oxaspiro[2.5]octan-6-yl 6-oxa-2-azaspiro[3.4]octane-2-carboxylate] | 2.7 | 13.9 | – | –
10 | – | CO[C@@H]1[C@H](OC(=O)N2C[C@H]3COC[C@H]3C2)CC[C@]2(CO2)[C@H]1[C@@]1(C)O[C@@H]1CC=C(C)C [Example 13, (3aR,6aS)-((3R,4S,5S,6R)-5-methoxy-4-((2R,3R)-2-methyl-3-(3-methylbut-2-enyl)oxiran-2-yl)-1-oxaspiro[2.5]octan-6-yl) tetrahydro-1H-furo[3,4-c]pyrrole-5(3H)-carboxylate] | 3.1 | 16.9 | – | –
11 | < 50 | CO[C@@H]1[C@H](OC(=O)NC2CC3(C2)CN(C)C3)CC[C@]2(CO2)[C@H]1[C@@]1(C)O[C@@H]1CC=C(C)C [Example 10, (3R,4S,5S,6R)-5-methoxy-4-((2R,3R)-2-methyl-3-(3-methylbut-2-enyl)oxiran-2-yl)-1-oxaspiro[2.5]octan-6-yl 2-methyl-2-azaspiro[3.3]heptan-6-ylcarbamate formate] | 2 | 8.4 | – | 7.2
12 | < 50 | CO[C@@H]1[C@H](OC(=O)N2CC3(CN(C)C3)C2)CC[C@]2(CO2)[C@H]1[C@@]1(C)O[C@@H]1CC=C(C)C [Example 12, (3R,4S,5S,6R)-5-methoxy-4-((2R,3R)-2-methyl-3-(3-methylbut-2-enyl)oxiran-2-yl)-1-oxaspiro[2.5]octan-6-yl 6-methyl-2,6-diazaspiro[3.3]heptane-2-carboxylate] | – | 1.8 | – | –
13 | 50 to 500 | CO[C@@H]1[C@H](OC(=O)N2C[C@@H]3[C@H](C2)[C@H]3C(=O)N(C)C)CC[C@]2(CO2)[C@H]1[C@@]1(C)O[C@@H]1CC=C(C)C [Example 33, (1R,5S,6R)-(3R,4S,5S,6R)-5-methoxy-4-((2R,3R)-2-methyl-3-(3-methylbut-2-en-1-yl)oxiran-2-yl)-1-oxaspiro[2.5]octan-6-yl 6-(dimethylcarbamoyl)-3-azabicyclo[3.1.0]hexane-3-carboxylate] | – | 13.8 | – | –
